In patent publication US8653100B2 (AbbVie Inc., priority 2008, dated 2014):
Counter-ions that a name gives are not always drawn. Like-named read-outs stand apart in the source and are kept apart here.

Experiments:
human GlyT1c = human GlyT1c (Homo sapiens (Human), UniProt P48067); assay: [3H]-Glycine uptake into recombinant CHO cells expressing human GlyT1; format: cell-based; settings: hGlyT1c_5_CHO cells, 200 nM [3H]-glycine
Procedure, shortened: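 hGlyT1c-expressing CHO cells plated at 20,000 cells/well and cultured 24 h; [3H]-glycine incorporation read continuously by solid-phase scintillation for up to 3 h. IC50 from four-parameter logistic fit using the linear uptake phase between 60 and 120 min.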

human GlyT1c transporter = human GlyT1c transporter (Homo sapiens (Human), UniProt P48067); assay: Radioligand binding assay using recombinant CHO cell membranes expressing human GlyT1; settings: read-out: radioligand binding Kiapp
Chain of human GlyT1c transporter (P48067 whole entry): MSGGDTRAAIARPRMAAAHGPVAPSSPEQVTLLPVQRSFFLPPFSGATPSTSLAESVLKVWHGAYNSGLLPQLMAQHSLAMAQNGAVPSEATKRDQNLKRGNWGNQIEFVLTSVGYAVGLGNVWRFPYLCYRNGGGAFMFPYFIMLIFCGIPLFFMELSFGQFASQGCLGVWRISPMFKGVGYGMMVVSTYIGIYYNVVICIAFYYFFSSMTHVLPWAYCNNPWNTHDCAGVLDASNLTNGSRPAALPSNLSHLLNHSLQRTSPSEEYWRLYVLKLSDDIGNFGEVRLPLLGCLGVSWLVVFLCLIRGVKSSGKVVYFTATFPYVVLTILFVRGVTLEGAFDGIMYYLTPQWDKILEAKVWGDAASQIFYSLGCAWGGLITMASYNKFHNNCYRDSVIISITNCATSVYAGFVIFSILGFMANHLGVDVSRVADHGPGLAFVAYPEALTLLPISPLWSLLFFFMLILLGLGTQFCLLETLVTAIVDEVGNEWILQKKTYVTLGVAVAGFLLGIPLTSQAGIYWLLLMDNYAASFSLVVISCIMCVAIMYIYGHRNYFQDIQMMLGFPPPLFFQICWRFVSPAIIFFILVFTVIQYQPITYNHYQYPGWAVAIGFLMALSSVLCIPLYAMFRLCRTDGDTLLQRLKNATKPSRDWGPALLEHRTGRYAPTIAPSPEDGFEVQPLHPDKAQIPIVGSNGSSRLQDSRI
Procedure, shortened: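 Competition binding of [^3H]-(R)-NPTS (0.5 nM) to CHO membranes expressing human GlyT1c (50 μg/ml protein) in pH 7.5 Hepes/NaCl buffer with 1% DMSO, 1 h at room temperature. Non-specific binding defined with 10 μM Org24598; filtration and scintillation counting, one-site fit, Ki via Cheng-Prusoff.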

[1] = examples 88-204, radioligand not specified by footnote

Chain of human GlyT1c (P48067 whole entry): as above

Row | SMILES | IC50 (human GlyT1c) [µM] | Ki (human GlyT1c transporter; radioligand [3H]-(R)-NPTS (examples 1-19, 22-52, 54-87)) [µM] | Ki (human GlyT1c transporter; [1]) [µM]
1 | O=S(=O)(NCCOc1ccc2c(c1)C(C1(c3ccc(Cl)cc3)CCC1)NCC2)c1ccc(Cl)cc1 (stereo not drawn) [Example 27, 4-Chloro-N-(2-{1-[1-(4-chloro-phenyl)-cyclobutyl]-1,2,3,4-tetrahydro-isoquinolin-7-yloxy}-ethyl)-benzenesulfonamide hydrochloride] | ≤ 1 | ≤ 1 | –
2 | O=S(=O)(CCCN1CCCCC1)NCCOc1ccc2c(c1)C(C1(c3ccc(Cl)cc3)CCC1)NCC2 (stereo not drawn) [Example 200, N-[2-({1-[1-(4-Chlorophenyl)cyclobutyl]-1,2,3,4-tetrahydroisoquinolin-7-yl}oxy)ethyl]-3-(piperidin-1-yl)propane-1-sulfonamide (2E)-but-2-enedioate] | ≤ 10 | – | ≤ 100
3 | CN(C)CCCS(=O)(=O)NCCOc1ccc2c(c1)C(C1(c3ccc(Cl)cc3)CCC1)NCC2 (stereo not drawn) [Example 181, N-[2-({1-[1-(4-Chlorophenyl)cyclobutyl]-1,2,3,4-tetrahydroisoquinolin-7-yl}oxy)ethyl]-3-(dimethylamino)propane-1-sulfonamide (2E)-but-2-enedioate] | ≤ 10 | – | ≤ 10
